The subject of one series is EV71. The series is described as follows: Anti-EV71 efficiency in RD cells, viral RNA by qRT-PCR. The series is classed as cell-based, enterovirus 71. The conditions noted are these: 24 h, control infected without polypeptide. How it is done: • (1) RD cells were plated in five 100 mm dishes. • (2) After the cells reached 70%-80% confluence, the MEM medium containing 10% serum was replaced with a MEM medium containing 2% serum. […] When the changes were obvious, samples were collected as follows. • (4) The supernatant in the 100 mm dish was transferred into a 15 ml centrifuge tube, and centrifuged at 500 g for 5 min. • (5) The supernatant was transferred into a new 15 ml centrifuge tube, and filtered through 0.22 μm filter membrane with a 50 ml syringe. • (6) RNA was extracted from 100 μl of the supernatant obtained in step (5) and subjected to one step qRT-PCR to measure the virus titer, and the previously extracted virus RNA with known titer was handled together as a control. 3. Measure Antiviral Efficiency of Polypeptide in RD Cells. • (1) Different cells were plated in 24-well cell plates. • (2) After the cells reached 70%-80% confluence, the MEM medium containing 10% serum was replaced with a MEM medium containing 2% serum (0.5 ml/well), and 5 μl of 10^6 PFU/mL EV71 viruses per well were added. • (3) After 1 h, different polypeptides were added at a final concentration of 0.01 μM, 0.1 μM, 1 μM, 10 μM, and 50 μM, respectively. • (4) Samples were collected 24 hours after virus infection, and RNA was extracted with total RNA extraction kit as follows. • (5) The supernatant in the wells was discarded, then 350 μl of TRK Lysis Buffer was added to each well and the plate was shaken on the shaker for 5 minutes. • (6) 350 μl of 70% ethanol (DEPC-treated) was added to the well and the plate was shaken on the shaker for 5 minutes. • (7) The mixture in the well was transferred to a RNA extraction column and centrifuged at 12,000 g for 1 min. • (8) The solution collected in the recovery tube was added back to the column and centrifuged at 12,000 g for 1 min. • (9) RNA washing buffer 1 was added to the column and centrifuged at 12,000 g for 30 s. • (10) RNA washing buffer 2 was added to the column and centrifuged at 12,000 g for 1 min. • (11) Step (10) was repeated once. • (12) The column was centrifuged at 12000 g for 2 min to completely remove residual RNA washing buffer. • (13) 50 μl DEPC-treated H2O was added to the column and centrifuge at 12,000 g for 2 min. • (14) 2 μl RNA sample was used according to one step qRT-PCR kit for fluorescence quantification experiment.
RD cells added with R8 penetrating peptide (sequence: RRRRRRRR) were used as a negative control.
RD cells were used to test the antiviral effect of polypeptide P2. EV71 (MOI=0.1) was added to RD cells at 80% confluence. After 1 hour of infection, polypeptide P2 was added at concentrations of 0.01 μM, 0.1 μM, 1 μM, 10 μM, and 50 μM, respectively. The samples were collected 24 hours later, and the total RNA was extracted. The level of viral genomic RNA was detected by qRT-PCR. The cells infected with the same type virus and added with penetrating peptide R8 were used as a control group.
• (1) RD cells were plated in five 100 mm dishes. • (2) After the cells reached 70%-80% confluence, the MEM medium containing 10% serum was replaced with a MEM medium containing 2% serum. […] When the changes were obvious, samples were collected as follows. • (4) The supernatant in the 100 mm dish was transferred into a 15 ml centrifuge tube, and centrifuged at 500 g for 5 min. • (5) The supernatant was transferred into a new 15 ml centrifuge tube, and filtered through 0.22 μm filter membrane with a 50 ml syringe. • (6) RNA was extracted from 100 μl of the supernatant obtained in step (5) and subjected to one step qRT-PCR to measure the virus titer, and the previously extracted virus RNA with known titer was handled together as a control. 3. […]

A short description of series [1]: Cytotoxicity by CCK-8 in RD cells. The series is classed as cell-based. The settings on record: human; for viability at 24 h, 0.01 µM: 0.01 μM polypeptide; for viability at 24 h, 0.01 µM / viability at 24 h, 0.1 µM / viability at 24 h, 1 µM / viability at 24 h, 10 µM / viability at 24 h, 100 µM: untreated = 100%, read-out: Cell viability (%); for viability at 24 h, 0.1 µM: 0.1 μM polypeptide; for viability at 24 h, 1 µM: 1 μM polypeptide; for viability at 24 h, 10 µM: 10 μM polypeptide; for viability at 24 h, 100 µM: 100 μM polypeptide; for CC50 at 24 h: Table 1 summary, cell line not given, read-out: CC50. How it is done:
(§1) The experiment was performed as follows. • (1) RD cells were plated in a 96-well plate at 100 μl per well. • (2) After the cells reached 70%-80% confluence, the MEM medium containing 10% serum was replaced with a MEM medium containing 2% serum. Then, polypeptide P2 was added to generate gradient concentrations of 0.01 μM, 0.1 μM, 1 μM, 10 μM, and 100 μM (final concentration), respectively. • (3) The test was performed 24 hours after the addition of the polypeptide, and 10 μl of viable cell detection reagent CCK-8 was added to each well and mixed well. • (4) The plate was incubated at 37° C. for 2 h. • (5) The absorbance value at OD450 was measured with a microplate reader.
as §1, with “P1” for “P2”, “concentrations),” for “concentration),”
(§2) RD cells were used to test the antiviral effect of polypeptide P1. When RD cells reached 80% confluence, polypeptide P1 was added at concentrations of 0 μM (control group), 0.01 μM, 0.1 μM, 1 μM, 10 μM, and 100 μM, respectively. Three parallel wells were used for each concentration. The test was carried out 24 hours later, and the cell viability was detected using the CCK-8 kit.
as §1, with “3A-TAT-EP” for “P2”, “concentrations),” for “concentration),”
(§3) RD cells were used to test the antiviral effect of polypeptide 3A-TAT-EP. When RD cells reached 80% confluence, polypeptide 3A-TAT-EP was added at concentrations of 0 μM (control group), 0.01 μM, 0.1 μM, 1 μM, 10 μM, and 100 μM, respectively. Three parallel wells were used for each concentration. The test was carried out 24 hours later, and the cell viability was detected using the CCK-8 kit.
as §1, with “Then, 3A-EP-DRI or 3A-EP-PEG4-PA” for “Then, polypeptide P2”, “and 50” for “and 100”, “(final concentrations),” for “(final concentration),”
(§4) RD cells were used to test the antiviral effect of polypeptides 3A-EP-DRI and 3A-EP-PEG4-PA. When RD cells reached 80% confluence, polypeptide 3A-EP-DRI or 3A-EP-PEG4-PA was added at concentrations of 0 μM (control group), 0.01 μM, 0.1 μM, 1 μM, 10 μM, and 50 μM, respectively. Three parallel wells were used for each concentration. The test was carried out 24 hours later, and the cell viability was detected using the CCK-8 kit. […]

Another series has as its system RD cells. Description: Cytotoxicity by CCK-8 in RD cells. The series is classed as cell-based. The conditions noted are these: RD cells; for Cell viability (%): 24 h, untreated = 100%; for cytotoxicity, result in words: CCK-8, 24 h. Here is the method:
as §1
as §1, with “P1” for “P2”, “concentrations),” for “concentration),”
as §2
as §1, with “3A-TAT-EP” for “P2”, “concentrations),” for “concentration),”
as §3
as §1, with “Then, 3A-EP-DRI or 3A-EP-PEG4-PA” for “Then, polypeptide P2”, “and 50” for “and 100”, “(final concentrations),” for “(final concentration),”
as §4

Several values for one entry are separate records, joined by “and”; a condition that tells them apart may be missing. Equal values may be shown once. No end group written: not given here.

In the case of `CCCCCCCCCCCCCCCC(=O)NCCCC[C@H](NC(=O)CCNC(=O)[C@@H]1CCCN1C(=O)[C@@H](NC(=O)[C@@H](NC(=O)[C@H](Cc1c[nH]c2ccccc12)NC(=O)CNC(=O)[C@H](CCC(N)=O)NC(=O)[C@H](CCC(=O)O)NC(=O)[C@H](CCCNC(=N)N)NC(=O)[C@H](CS)NC(=O)[C@H](Cc1ccc(O)cc1)NC(=O)[C@H](CCC(N)=O)NC(=O)[C@H](CCCNC(=N)N)NC(=O)[C@@H](NC(=O)[C@H](CCC(=O)O)NC(=O)[C@@H](N)CCC(=O)O)C(C)C)[C@@H](C)CC)[C@@H](C)CC)C(=O)O` [EP-PA], the “Relative viral RNA amount (%)” value with EV71 (EV71 MOI=0.1, 0.01 μM) is 83.07% and 76.47% and 56.74%; in the series with EV71 (EV71 MOI=0.1, 0.1 μM) it was 79.01% and 67.55% and 53.7%; with EV71 (EV71 MOI=0.1, 1 μM), 86.29% and 75.98% and 56.91%.

For RRRRRRRRAISDLLAS [P1], in series [1] (RD cells), the viability (commonly a read-out of living cells in per cent, often relative to untreated cells) at 24 h, 0.01 µM is 103%; the viability at 24 h, 0.1 µM was 106%; the viability at 24 h, 1 µM amounted to 103%; the viability at 24 h, 10 µM came out at 103%. Also, in series [1] (RD cells), the viability at 24 h, 100 µM turned out to be 100%. In addition, in series [1], the 50% cytotoxic concentration (CC50) – broadly, the concentration at which the toxic effect on the cells reaches its halfway point – at 24 h is above 100 µM. In addition, in the series on RD cells (0.01 μM polypeptide), the “Cell viability (%)” value is 98.82% and 106.3%. Besides, the “Cell viability (%)” value in the series with RD cells (0.1 μM polypeptide) is 104.9% and 99.14%. Also, the “Cell viability (%)” value with RD cells (1 μM polypeptide) was 105.5% and 102.9%. In addition, the “Cell viability (%)” value in the series with RD cells (10 μM polypeptide) was 107.1% and 98.61%. The “Cell viability (%)” value with RD cells (100 μM polypeptide) is 97.06% and 98.38%. In addition, the “cytotoxicity, result in words” value in the series on RD cells is reported as “not toxic to cells within 100 μM”.

Take “EP-CHOL: SEQ ID NO: 9, EEVRQYCREQGWIIP-AK-cholesterol (Chol)”: the “Relative viral RNA amount (%)” value in the series with EV71 (EV71 MOI=0.1, 0.01 μM) is 75.49% and 59.54% and 59.75%; with EV71 (EV71 MOI=0.1, 0.1 μM), 75.76% and 70.99% and 60.98%; in the series on EV71 (EV71 MOI=0.1, 1 μM), 96.78% and 76.07% and 59.55%; in the series with EV71 (EV71 MOI=0.1, 10 μM), 39.12% and 66.18% and 37.09%.

As to `CC[C@H](C)[C@H](NC(=O)[C@H](Cc1c[nH]c2ccccc12)NC(=O)CNC(=O)[C@H](CCC(N)=O)NC(=O)[C@H](CCC(=O)O)NC(=O)[C@H](CCCNC(=N)N)NC(=O)[C@H](CS)NC(=O)[C@H](Cc1ccc(O)cc1)NC(=O)[C@H](CCC(N)=O)NC(=O)[C@H](CCCNC(=N)N)NC(=O)[C@@H](NC(=O)[C@H](CCC(=O)O)NC(=O)[C@H](CCC(=O)O)NC(=O)CNC(=O)[C@H](CO)NC(=O)CNC(=O)[C@H](CCCNC(=N)N)NC(=O)[C@H](CCCNC(=N)N)NC(=O)[C@H](CCCNC(=N)N)NC(=O)[C@H](CCC(N)=O)NC(=O)[C@H](CCCNC(=N)N)NC(=O)[C@H](CCCNC(=N)N)NC(=O)[C@H](CCCCN)NC(=O)[C@H](CCCCN)NC(=O)[C@H](CCCNC(=N)N)NC(=O)CNC(=O)[C@@H](N)Cc1ccc(O)cc1)C(C)C)C(=O)N[C@H](C(=O)N1CCC[C@H]1C(=O)O)[C@@H](C)CC` [3A-TAT-EP], in series [1] (RD cells), the viability at 24 h, 0.01 µM turned out to be 103%; the viability at 24 h, 0.1 µM was 106%; the viability at 24 h, 1 µM was determined as 103%; the viability at 24 h, 10 µM is 103%. In addition, the viability at 24 h, 100 µM in series [1] (RD cells) worked out at 100%. Besides, in series [1], the CC50 at 24 h is above 100 µM. For the same compound, the “Cell viability (%)” value with RD cells (0.01 μM polypeptide) was 98.82% and 106.3%. Also, the “Cell viability (%)” value in the series with RD cells (0.1 μM polypeptide) is 104.9% and 99.14%. Further, in the series on RD cells (1 μM polypeptide), the “Cell viability (%)” value is 105.5% and 102.9%. The “Cell viability (%)” value in the series with RD cells (10 μM polypeptide) is 107.1% and 98.61%. Besides, in the series with RD cells (100 μM polypeptide), the “Cell viability (%)” value was 97.06% and 98.38%. In the series on RD cells, the “cytotoxicity, result in words” value was “not toxic to cells within 100 μM”.

Take `N=C(N)NCCC[C@H](NC(=O)[C@H](CCCNC(=N)N)NC(=O)[C@H](CCCNC(=N)N)NC(=O)[C@H](CCCNC(=N)N)NC(=O)[C@H](CCCNC(=N)N)NC(=O)[C@H](CCCNC(=N)N)NC(=O)[C@H](CCCNC(=N)N)NC(=O)[C@@H](N)CCCNC(=N)N)C(=O)O` [R8, reference compound]: in series [1] (RD cells, Cell viability (%)), the viability at 24 h amounted to 104%.

These data come from patent publication US11999806B2, “Broad-spectrum polypeptide against enterovirus and application thereof” (WUHAN INSTITUTE OF VIROLOGY, CHINESE ACADEMY OF SCIENCES, priority 2018, dated 2024).
